≈ marks a conversion by molar mass, not a printed value. Calls of active or inactive are those of the source. No cut-off for these calls is given here. Where a SMILES comes first, the peptide text is derived from it. [ ]: non-standard residue; d: D form. Aic = NC1(C(=O)O)Cc2ccccc2C1

Usually MIC stands for the lowest concentration found to suppress growth. Low values mean greater potency, high ones weaker potency.

The test system of data set [1] is Acinetobacter baumannii. Put plainly: Antimicrobial activity against Acinetobacter baumannii ATCC 19606 assessed as induction of membrane-perturbation at MIC measured every minute for 120 mins by SYTOX green fluorescence dye influx assay. The data set is classed as functional, organism-based. The settings on record: ATCC 19606 = CIP 70.34 = JCM 6841.
In data set [2] the test system is Candida albicans. Kind of data set: Antimicrobial activity against Candida albicans ATCC 10231 assessed as induction of membrane-perturbation at MIC measured every minute for 10 mins by SYTOX green fluorescence dye influx assay. The data set is classed as functional, organism-based.
In data set [3] the test system is Staphylococcus epidermidis. Kind of data set: Antimicrobial activity against Staphylococcus epidermidis ATCC 12228 assessed as membrane-perturbation measured every minute for 120 mins by SYTOX green fluorescence dye influx assay. The format is functional, organism-based.
Data set [4] relates to HaCaT. Kind of data set: Cytotoxicity against human HaCaT cells at 50 uM after 24 hrs by MTT assay relative to control. The format is cell-based. (Formazan colour is commonly taken as a measure of viable cells.)
For data set [5], the system named is Acinetobacter baumannii. Put plainly: Antimicrobial activity against Acinetobacter baumannii ATCC 19606 after 18 to 20 hrs by microbroth dilution method. The format is functional. Particulars: ATCC 19606 = CIP 70.34 = JCM 6841. A general note: Dilution methods test growth across graded concentrations, often in twofold steps.
Data set [6] relates to Staphylococcus epidermidis. Put plainly: Antimicrobial activity against Staphylococcus epidermidis ATCC 12228 after 18 to 20 hrs by microbroth dilution method. The data set is classed as functional.
Data set [7] deals with HaCaT. Put plainly: Cytotoxicity against human HaCaT cells at 25 uM after 24 hrs by MTT assay relative to control. The data set is classed as cell-based.
The subject of a further data set is Pseudomonas syringae. Kind of data set: Antimicrobial activity against Pseudomonas syringae pv tabaci NCPPB 1918 after 18 to 20 hrs by microbroth dilution method. The format is functional, Pseudomonas amygdali pv. tabaci.
In data set [8] the test system is Candida albicans. Kind of data set: Antimicrobial activity against Candida albicans ATCC 10231 after 18 to 20 hrs by microbroth dilution method. The data set is classed as functional.
A further data set concerns Pseudomonas aeruginosa. Put plainly: Antimicrobial activity against Pseudomonas aeruginosa ATCC 27853 after 18 to 20 hrs by microbroth dilution method. The format is functional.
The next data set deals with Priestia megaterium. Put plainly: Antimicrobial activity against Bacillus megaterium Bm11 after 18 to 20 hrs by microbroth dilution method. The data set is classed as functional.
The next data set deals with Pichia kudriavzevii. Kind of data set: Antimicrobial activity against Candida krusei ATCC 6258 after 18 to 20 hrs by microbroth dilution method. The format is functional.
In data set [9] the test system is HaCaT. Put plainly: Cytotoxicity against human HaCaT cells at 12.5 uM after 24 hrs by MTT assay relative to control. The data set is classed as cell-based.
Another data set deals with Escherichia coli. Kind of data set: Antimicrobial activity against Escherichia coli D21 after 18 to 20 hrs by microbroth dilution method. The format is functional.
A further data set relates to Staphylococcus aureus. Put plainly: Antimicrobial activity against Staphylococcus aureus Cowan I after 18 to 20 hrs by microbroth dilution method. The format is functional.
The test system of data set [10] is HaCaT. Kind of data set: Cytotoxicity against human HaCaT cells at 1.56 to 6.25 uM after 24 hrs by MTT assay. The format is cell-based.

In the case of H-FVQWFSKFLGRIL-NH2, the outcome (in the data set with Acinetobacter baumannii [1]; in the data set with Candida albicans [2]; in data set [3]) was Active.

In the case of `CC[C@H](C)[C@H](NC(=O)[C@H](CCCNC(=N)N)NC(=O)C1(NC(=O)[C@@H](CC(C)C)NC(=O)[C@H](Cc2ccccc2)NC(=O)[C@H](CCCCN)NC(=O)[C@H](CO)NC(=O)[C@H](Cc2ccccc2)NC(=O)[C@H](Cc2c[nH]c3ccccc23)NC(=O)[C@@H]2CCCN2C(=O)[C@@H](NC(=O)[C@@H](N)Cc2ccccc2)C(C)C)Cc2ccccc2C1)C(=O)N[C@@H](CC(C)C)C(N)=O` (H-FVPWFSKF[dL][Aic]RIL-NH2), the Activity with HaCaT [4] is recorded as 92.84%; in the data set with HaCaT [7], 88.72%; in the data set with HaCaT [9], 45.54%; in the data set with HaCaT [10] it was “Non-Toxic”. The minimal inhibitory concentration (MIC) is 3.12 µM (≈ 5.35 µg/mL) in the data set with Acinetobacter baumannii [5]; 1.56 µM (≈ 2.67 µg/mL) in data set [6]; 1.56 µM (≈ 2.67 µg/mL) in the data set with Pseudomonas syringae; 6.25 µM (≈ 10.7 µg/mL) with Candida albicans [8]; more than 50 µM in the data set on Pseudomonas aeruginosa; 1.56 µM (≈ 2.67 µg/mL) against Priestia megaterium. For the same compound, the MIC against Pichia kudriavzevii was 6.25 µM (≈ 10.7 µg/mL); against Escherichia coli, more than 50 µM; with Staphylococcus aureus, 1.56 µM (≈ 2.67 µg/mL).

Consider `CC[C@H](C)[C@H](NC(=O)[C@H](CCCNC(=N)N)NC(=O)[C@@H]1CCCN1C(=O)[C@@H](CC(C)C)NC(=O)[C@H](Cc1ccccc1)NC(=O)[C@H](CCCCN)NC(=O)[C@H](CO)NC(=O)[C@H](Cc1ccccc1)NC(=O)[C@H](Cc1c[nH]c2ccccc12)NC(=O)[C@@H]1CCCN1C(=O)[C@@H](NC(=O)[C@@H](N)Cc1ccccc1)C(C)C)C(=O)N[C@@H](CC(C)C)C(N)=O` (H-FVPWFSKF[dL]PRIL-NH2), for which the Activity is recorded as 96.61% with HaCaT [4], 77.06% in the data set on HaCaT [7], 16.15% with HaCaT [9] and “Non-Toxic” in the data set on HaCaT [10]. In addition, the MIC was determined as 6.25 µM (≈ 10.3 µg/mL) against Acinetobacter baumannii [5]; 3.12 µM (≈ 5.15 µg/mL) in data set [6]; 12.5 µM (≈ 20.6 µg/mL) against Pseudomonas syringae; 1.56 µM (≈ 2.57 µg/mL) against Candida albicans [8]; 50 µM (≈ 82.5 µg/mL) in the data set with Pseudomonas aeruginosa; 1.56 µM (≈ 2.57 µg/mL) against Priestia megaterium. The MIC in the data set with Pichia kudriavzevii came to 1.56 µM (≈ 2.57 µg/mL); with Escherichia coli, 25 µM (≈ 41.2 µg/mL); with Staphylococcus aureus, 3.12 µM (≈ 5.15 µg/mL).

Take `CC[C@H](C)C(NC(=O)[C@H](CCCNC(=N)N)NC(=O)[C@H](CCCCN)NC(=O)[C@@H](CC(C)C)NC(=O)[C@H](Cc1ccccc1)NC(=O)[C@H](CCCCN)NC(=O)[C@H](CO)NC(=O)[C@H](Cc1ccccc1)NC(=O)[C@H](Cc1c[nH]c2ccccc12)NC(=O)[C@@H]1CCCN1C(=O)[C@@H](NC(=O)[C@@H](N)Cc1ccccc1)C(C)C)C(=O)N[C@@H](CC(C)C)C(N)=O` (single isomer, unassigned): the Activity with HaCaT [4] is 96.79%; with HaCaT [7], 66.86%; in the data set on HaCaT [9], 49.3%; with HaCaT [10], “Non-Toxic”. In addition, the MIC worked out at 3.12 µM (≈ 5.25 µg/mL) with Acinetobacter baumannii [5]; 3.12 µM (≈ 5.25 µg/mL) in data set [6]; 6.25 µM (≈ 10.5 µg/mL) against Pseudomonas syringae; 1.56 µM (≈ 2.62 µg/mL) in the data set on Candida albicans [8]; 12.5 µM (≈ 21 µg/mL) against Pseudomonas aeruginosa; 3.12 µM (≈ 5.25 µg/mL) against Priestia megaterium. In addition, the values for the MIC in the data set on Pichia kudriavzevii, in the data set on Escherichia coli and against Staphylococcus aureus were 1.56 µM (≈ 2.62 µg/mL), 12.5 µM (≈ 21 µg/mL) and 6.25 µM (≈ 10.5 µg/mL), respectively.

Take `CCCC[C@H](NC(=O)[C@@H](CC(C)C)NC(=O)[C@H](Cc1ccccc1)NC(=O)[C@H](CCCCN)NC(=O)[C@H](CO)NC(=O)[C@H](Cc1ccccc1)NC(=O)[C@H](Cc1c[nH]c2ccccc12)NC(=O)[C@@H]1CCCN1C(=O)[C@@H](NC(=O)[C@@H](N)Cc1ccccc1)C(C)C)C(=O)N[C@@H](CCCNC(=N)N)C(=O)NC(C(=O)N[C@@H](CC(C)C)C(N)=O)[C@@H](C)CC` (single isomer, unassigned): the Activity is 99.76% in the data set on HaCaT [4], 65.86% with HaCaT [7], 12.25% with HaCaT [9] and “Non-Toxic” in the data set on HaCaT [10]. The MIC worked out at 6.25 µM (≈ 10.4 µg/mL) against Acinetobacter baumannii [5]; 3.12 µM (≈ 5.2 µg/mL) in data set [6]; 6.25 µM (≈ 10.4 µg/mL) in the data set with Pseudomonas syringae; 3.12 µM (≈ 5.2 µg/mL) against Candida albicans [8]; 50 µM (≈ 83.3 µg/mL) in the data set on Pseudomonas aeruginosa; 3.12 µM (≈ 5.2 µg/mL) against Priestia megaterium. Besides, the results for the MIC in the data set with Pichia kudriavzevii, with Escherichia coli and in the data set on Staphylococcus aureus were 3.12 µM (≈ 5.2 µg/mL), 25 µM (≈ 41.6 µg/mL) and 3.12 µM (≈ 5.2 µg/mL), respectively.

Regarding `CC[C@H](C)[C@H](NC(=O)[C@H](CCCNC(=N)N)NC(=O)[C@H]1C[C@@H](O)CN1C(=O)[C@@H](CC(C)C)NC(=O)[C@H](Cc1ccccc1)NC(=O)[C@H](CCCCN)NC(=O)[C@H](CO)NC(=O)[C@H](Cc1ccccc1)NC(=O)[C@H](Cc1c[nH]c2ccccc12)NC(=O)[C@@H]1CCCN1C(=O)[C@@H](NC(=O)[C@@H](N)Cc1ccccc1)C(C)C)C(=O)N[C@@H](CC(C)C)C(N)=O`, the Activity in the data set on HaCaT [4] is 0%; in the data set with HaCaT [7], 0%; in the data set with HaCaT [9] it was 0%; in the data set on HaCaT [10] it was “Non-Toxic”. Further, the MIC was 25 µM (≈ 41.6 µg/mL) against Acinetobacter baumannii [5]; 50 µM (≈ 83.3 µg/mL) in [6]; more than 50 µM in the data set on Pseudomonas syringae; 3.12 µM (≈ 5.2 µg/mL) with Candida albicans [8]; more than 50 µM against Pseudomonas aeruginosa; 3.12 µM (≈ 5.2 µg/mL) against Priestia megaterium. The MIC against Pichia kudriavzevii is 3.12 µM (≈ 5.2 µg/mL); in the data set on Escherichia coli, 25 µM (≈ 41.6 µg/mL); against Staphylococcus aureus it was more than 50 µM.

For the compound `CC[C@H](C)[C@H](NC(=O)[C@H](CCCNC(=N)N)NC(=O)[C@H]1CCCN1C(=O)[C@@H](CC(C)C)NC(=O)[C@H](Cc1ccccc1)NC(=O)[C@H](CCCCN)NC(=O)[C@H](CO)NC(=O)[C@H](Cc1ccccc1)NC(=O)[C@H](Cc1c[nH]c2ccccc12)NC(=O)[C@@H]1CCCN1C(=O)[C@@H](NC(=O)[C@@H](N)Cc1ccccc1)C(C)C)C(=O)N[C@@H](CC(C)C)C(N)=O` (H-FVPWFSKF[dL][dP]RIL-NH2), the Activity is on record as 0% in the data set on HaCaT [4], 0% in the data set on HaCaT [7], 0% in the data set on HaCaT [9] and “Non-Toxic” with HaCaT [10]. Also, the minimum inhibitory concentration (MIC) in the data set with Acinetobacter baumannii [5] is 50 µM (≈ 82.5 µg/mL); in data set [6], 25 µM (≈ 41.2 µg/mL); against Pseudomonas syringae, 50 µM (≈ 82.5 µg/mL); in the data set with Candida albicans [8], 3.12 µM (≈ 5.15 µg/mL); in the data set with Pseudomonas aeruginosa it was more than 50 µM; with Priestia megaterium, 3.12 µM (≈ 5.15 µg/mL). For the same compound, the MIC was 3.12 µM (≈ 5.15 µg/mL) against Pichia kudriavzevii, 50 µM (≈ 82.5 µg/mL) in the data set on Escherichia coli and more than 50 µM against Staphylococcus aureus.

In the case of `CC[C@H](C)[C@H](NC(=O)[C@H](CCCNC(=N)N)NC(=O)[C@@H]1C[C@@H](O)CN1C(=O)[C@@H](CC(C)C)NC(=O)[C@H](Cc1ccccc1)NC(=O)[C@H](CCCCN)NC(=O)[C@H](CO)NC(=O)[C@H](Cc1ccccc1)NC(=O)[C@H](Cc1c[nH]c2ccccc12)NC(=O)[C@@H]1CCCN1C(=O)[C@@H](NC(=O)[C@@H](N)Cc1ccccc1)C(C)C)C(=O)N[C@@H](CC(C)C)C(N)=O`, the Activity is 98.81% in the data set with HaCaT [4], 84.72% in the data set with HaCaT [7], 2.76% with HaCaT [9] and “Non-Toxic” with HaCaT [10]. Moreover, the MIC was determined as 6.25 µM (≈ 10.4 µg/mL) against Acinetobacter baumannii [5]; 6.25 µM (≈ 10.4 µg/mL) in data set [6]; 12.5 µM (≈ 20.8 µg/mL) in the data set with Pseudomonas syringae; 3.12 µM (≈ 5.2 µg/mL) in the data set with Candida albicans [8]; 50 µM (≈ 83.3 µg/mL) in the data set on Pseudomonas aeruginosa; 1.56 µM (≈ 2.6 µg/mL) in the data set on Priestia megaterium. In addition, the MIC in the data set with Pichia kudriavzevii was 1.56 µM (≈ 2.6 µg/mL); against Escherichia coli, 25 µM (≈ 41.6 µg/mL); in the data set on Staphylococcus aureus, 6.25 µM (≈ 10.4 µg/mL).

Source of the values: ChEMBL document CHEMBL4130416, “Glycine-replaced derivatives of [Pro3,DLeu9]TL, a temporin L analogue: Evaluation of antimicrobial, cytotoxic and hemolytic activities” (Eur J Med Chem, 2017).
